# Source: patent US20010014676A1, “Immunosuppressive compositions” (priority 1990, published 2001)
# Tested on: Lewis-Brown Norway F1 Hybrid cardiac allografts in Lewis recipients
# Assay: acute cardiac allograft rejection model (procedure of Kupiec-Weglinski)
# Type: in vivo, rat
# Settings: for GRAFT SURVIVAL MEAN ± SD: N=7
# Method: The therapeutic efficacy of a pharmaceutical composition of the invention was tested according to the procedure of Kupiec-Weglinski, J. W., et al., (1988) Transplant Proc. 20:207-216 (hereinafter “Kupiec-Weglinski”) to determine its in vivo potency as an acute transplantation/graft rejection modulator.
# Briefly, to preform these experiments, the following protocol was employed. Male inbred adult rats (Lewis-Brown Norway F1 Hybrid rats, obtained from Harlan sprague—Dawley Inc., Indianapolis, Ind.) were used. Lewis-Brown Norway F1 Hybrid cardiac allografts were transplanted to the abdominal great vessels of Lewis recipients. The animals were administered compounds according to the following five distinct regimens.
# Protocol I. Pretreatment Protocol—20 mg/kg/day of Compound A was administered orally for 7 consecutive days prior to transplantation (days −7 to −1).
# Protocol II Treatment Protocol—20 mg/kg/day of Compound A was administered orally for 7 consecutive post-transplant days (days 0-6) followed by intermittent 5 day courses (days 9-13 and 16-20).
# Protocol III Pretreatment and Treatment Protocol—20 mg/kg/day of Compound A was administered orally for 7 consecutive days prior to transplantation (days −7 to −1) followed by intermittent 5 day courses (days 9-13 and 16-20).
# Ventricular contractions were assessed daily by palpation through the recipient flank. Rejection was defined as the day of cessation of myocardial contractions and confirmed histologically.
structure (smiles),measurement,setting,value
"CCCC1(CCC)CCC2(CCN(CCCN(C)C)C2)CC1 [Compound A, N,N-dimethyl-8,8-dipropyl-2-azaspiro [4,5]-decane-2-propanamine]",average graft survival time,"Compound A alone (pretreatment, treatment or pretreatment and treatment protocol), untreated average 7 days",16 days
same,GRAFT SURVIVAL MEAN ± SD,"Protocol I pretreatment: Compound A 20 mg/kg/day orally, days -7 to -1",14.7 ± 5.8 days
same,GRAFT SURVIVAL MEAN ± SD,"Protocol II treatment: Compound A 20 mg/kg/day orally, days 0-6, then days 9-13 and 16-20",16.7 ± 2.0 days
same,GRAFT SURVIVAL MEAN ± SD,"Protocol III pretreatment and treatment: Compound A 20 mg/kg/day orally, days -7 to -1, then days 9-13 and 16-20",16.0 ± 4.3 days
same,graft survival time (transplants routinely retained),"combination protocol: Compound A 20 mg/kg/day orally plus cyclosporin A […] by injection, days 0-6",over 40 days
